Test results: PMC11570809, “Novel N-phenyl-2-(aniline) benzamide hydrochloride salt development for colon cancer therapy” (Frontiers in Pharmacology, 2024)
Structures can show the parent of a compound that is named as a salt.

Assays:
PC-3 = assay: MTT anti-proliferation assay, PC-3; assay type: cell-based; settings: Homo sapiens, PC-3, 72 h, read-out: IC50 ± SD PC-3
HT29 = assay: MTT anti-proliferation assay, HT29; assay type: cell-based, human; settings: 72 h, read-out: IC50 ± SD HT29
Experimental: The anti-proliferation activities of synthesized compounds to colon cancer cell lines were measured by the MTT (3-[4,5-dimethyl-2-thiazolyl]-2,5-diphenyl-2H-tet razolium bromide) assay. First, the cell suspension was prepared by trypsin and the corresponding medium, cells were diluted to 5 × 10^5 cells/mL, and 96-well plates were added 200 μL per well. The plates were maintained at 37°C in a humidified atmosphere containing 5% CO2 overnight. Then compounds at gradient concentrations were added to cells in the logarithmic phase to make the final concentration at 0.5, 1, 2, 4, 8, 16, and 32 μM. The cells were treated with tested compounds for 72 h, and the growth curve assay was tested in 24 h. When the time was up, 20 μL of MTT solution (5 mg/mL in PBS) was added into each well to incubate for 4 h at 37°C. Then the supernatant liquid was removed, 150 μL DMSO was added into every well to dissolve formazan crystals and read the absorbance at 570 nm by Spark microplate spectrophotometer (Tecan, Swiss). The IC50 values were analyzed by IBM SPASS Statistics 25.0 software. The data are all derived from three parallel experiments (n = 3) and expressed as mean ± SD.

RKO cells = assay: Plane colony assay, RKO; assay type: cell-based, human; settings: RKO, 1, 2 and 4 µM
Experimental: In 6-well plates, HT29 cells and RKO cells (1 × 10^3 cells/well) were inoculated and maintained overnight. Then treated with N53 and N53·HCl at different concentrations for 24 h and with normal culture-medium for 7 days respectively. After that, removed supernatant and fixed by 4% paraformaldehyde for 15 min. Then fixed cells were stained with 1% crystal violet dye for 15 min and rinsed with water. Finally, colonies were counted according to rules that nonoverlapping groups of at least 50 cells. The data are all derived from three parallel experiments (n = 3) and expressed as mean ± SD.

Cc1c(Cl)cccc1Nc1ccccc1C(=O)Nc1ccc(N2CCN(C)CC2)cc1 [N53·HCl, 4-(4-(2-((3-chloro-2-methylphenyl)amino)ben-zamido)phenyl)-1-methylpiperazin-1-ium]
IC50 (PC-3): 13.7 ± 0.8 µM | IC50 (HT29): 2.95 ± 0.08 µM | Number of cell clones formed (RKO cells): decreased significantly and dose-dependently
